According to patent US20020111274A1, “1-alkyl-3-[1-(substituted phenyl) benzotriazol-6-yl] uracils” (BASF Aktiengesellschaft, priority 2000, published 2002):

Assays:
Parameters in all cases: scale not given here
ZEAMX Corn, Field = assay: Preemergence herbicidal evaluation, ZEAMX; type: in vivo, Zea mays, L. (Sammel-Bezeichnung); details: preemergence
Text: (§1) The preemergence herbicidal activity of the test compounds of the present invention is exemplified by the following tests in which the seeds of a variety of monocotyledonous and dicotyledonous plants are separately mixed with potting soil and planted on top of approximately one inch of soil in separate pint cups. […] The treated cups are then placed on greenhouse benches, watered and cared for in accordance with conventional greenhouse procedures. From four to five weeks after treatment, the tests are terminated and each cup is examined and rated according to the rating system provided in Example 46.

[1] = system: IPOHE Morningglory, Ivyleaf; assay: Preemergence herbicidal evaluation, IPOHE; type: in vivo, Ipomoea hederacea, (L.) Jacq.; details: preemergence
Text: as §1

AMBEL Ragweed, Common = assay: Preemergence herbicidal evaluation, AMBEL; type: in vivo, Ambrosia artemisifolia, L.; details: preemergence
Text: as §1

CASOB Sicklepod [2] = assay: Postemergence herbicidal evaluation, CASOB; type: in vivo, Cassia obtusifolia, L.; details: postemergence spray, rated about two-three weeks after treatment
Procedure: (§2) In this evaluation, seedling plants are grown in jiffy flats for about two weeks. The test compounds are dispersed in 80/20 acetone/water mixtures containing 1.0% SUN-IT® II, a methylated seed oil, in sufficient quantities to provide the equivalent of about 0.006 kg to 0.400 kg per hectare of active compound when applied to the plants through a spray nozzle operating at 40 psi for a predetermined time. After spraying, the plants are placed on greenhouse benches and are cared for in accordance with conventional greenhouse procedures. Approximately two - three weeks after treatment, the seedling plants are examined and rated according to the rating system set forth below. Where more than one test is involved for a given compound, the data are averaged.

SETVI Foxtail, Green = assay: Preemergence herbicidal evaluation, SETVI; type: in vivo, Setaria viridis, (L.) Beau; details: preemergence
Text: as §1

CASOB Sicklepod [3] = assay: Preemergence herbicidal evaluation, CASOB; type: in vivo, Cassia obtusifolia, L.; details: preemergence
Text: as §1

GALAP Galium [4] = assay: Postemergence herbicidal evaluation, GALAP; type: in vivo, Galium aparine; details: postemergence spray, rated about two-three weeks after treatment
Procedure: as §2

GALAP Galium [5] = assay: Preemergence herbicidal evaluation, GALAP; type: in vivo, Galium aparine; details: preemergence
Text: as §1

ORYSAT Rice, Tebonnet = assay: Postemergence herbicidal evaluation, ORYSAT; type: in vivo, Oryza sativa, (L.); details: postemergence spray, rated about two-three weeks after treatment
Procedure: as §2

ECHOG Barnyardgrass = assay: Preemergence herbicidal evaluation, ECHOG; type: in vivo, Echinochloa crus-galli, (L.) Beau; details: preemergence
Text: as §1

[6] = system: TRZAWR Wheat, Winter, cv Riband; assay: Postemergence herbicidal evaluation, TRZAWR; type: in vivo, Triticum aestivum; details: postemergence spray, rated about two-three weeks after treatment
Procedure: as §2

GLXMAW Soybean, Williams = assay: Preemergence herbicidal evaluation, GLXMAW; type: in vivo, Glycine max, (L.) Merr. cv Williams; details: preemergence
Text: as §1

For `Cc1ccc(-n2nnc3cc(F)c(-n4c(=O)cc(C(F)(F)F)n(C)c4=O)cc32)cc1` [Example 19], the ZEAMX herbicidal rating (ZEAMX Corn, Field; rate 0.016 kg/ha) was 1.0, the ZEAMX herbicidal rating (ZEAMX Corn, Field; rate 0.032 kg/ha) was 1.5 and the ZEAMX herbicidal rating (ZEAMX Corn, Field; rate 0.062 kg/ha) was 4.0. For the same compound, the ZEAMX herbicidal rating (ZEAMX Corn, Field; rate 0.125 kg/ha) was 6.5, the IPOHE herbicidal rating ([1]; rate 0.016 kg/ha) was 1.0 and the IPOHE herbicidal rating ([1]; rate 0.032 kg/ha) was 1.5. For the same compound, the IPOHE herbicidal rating ([1]; rate 0.062 kg/ha) was 5.5, the IPOHE herbicidal rating ([1]; rate 0.125 kg/ha) was 8.0 and the AMBEL herbicidal rating (AMBEL Ragweed, Common; rate 0.016 kg/ha) was 4.5. The AMBEL herbicidal rating (AMBEL Ragweed, Common; rate 0.032 kg/ha) was 5.5, the AMBEL herbicidal rating (AMBEL Ragweed, Common; rate 0.062 kg/ha) was 8.0 and the AMBEL herbicidal rating (AMBEL Ragweed, Common; rate 0.125 kg/ha) was 9.0. For the same compound, the “Postemergence herbicidal rating CASOB” value (CASOB Sicklepod [2]; 0.008 kg/ha) was 0.0, the “Postemergence herbicidal rating CASOB” value (CASOB Sicklepod [2]; 0.016 kg/ha) was 0.0 and the “Postemergence herbicidal rating CASOB” value (CASOB Sicklepod [2]; 0.032 kg/ha) was 2.0. The “Postemergence herbicidal rating CASOB” value (CASOB Sicklepod [2]; 0.062 kg/ha) was 2.0, the SETVI herbicidal rating (SETVI Foxtail, Green; rate 0.016 kg/ha) was 4.5 and the SETVI herbicidal rating (SETVI Foxtail, Green; rate 0.032 kg/ha) was 7.0. For the same compound, the SETVI herbicidal rating (SETVI Foxtail, Green; rate 0.062 kg/ha) was 9.0, the SETVI herbicidal rating (SETVI Foxtail, Green; rate 0.125 kg/ha) was 9.0 and the CASOB herbicidal rating (CASOB Sicklepod [3]; rate 0.016 kg/ha) was 1.0. The CASOB herbicidal rating (CASOB Sicklepod [3]; rate 0.032 kg/ha) was 1.5, the CASOB herbicidal rating (CASOB Sicklepod [3]; rate 0.062 kg/ha) was 1.5 and the CASOB herbicidal rating (CASOB Sicklepod [3]; rate 0.125 kg/ha) was 1.0. The “Postemergence herbicidal rating GALAP” value (GALAP Galium [4]; 0.008 kg/ha) was 0.0, the “Postemergence herbicidal rating GALAP” value (GALAP Galium [4]; 0.016 kg/ha) was 3.0 and the “Postemergence herbicidal rating GALAP” value (GALAP Galium [4]; 0.032 kg/ha) was 4.0. The “Postemergence herbicidal rating GALAP” value (GALAP Galium [4]; 0.062 kg/ha) was 4.0, the GALAP herbicidal rating (GALAP Galium [5]; rate 0.016 kg/ha) was 0.0 and the GALAP herbicidal rating (GALAP Galium [5]; rate 0.032 kg/ha) was 0.0. The GALAP herbicidal rating (GALAP Galium [5]; rate 0.062 kg/ha) was 0.0, the GALAP herbicidal rating (GALAP Galium [5]; rate 0.125 kg/ha) was 9.0 and the “Postemergence herbicidal rating ORYSAT” value (ORYSAT Rice, Tebonnet; 0.008 kg/ha) was 2.0. The “Postemergence herbicidal rating ORYSAT” value (ORYSAT Rice, Tebonnet; 0.016 kg/ha) was 2.5, the “Postemergence herbicidal rating ORYSAT” value (ORYSAT Rice, Tebonnet; 0.032 kg/ha) was 3.0 and the “Postemergence herbicidal rating ORYSAT” value (ORYSAT Rice, Tebonnet; 0.062 kg/ha) was 4.0. It also gave an ECHCG herbicidal rating (ECHOG Barnyardgrass; rate 0.016 kg/ha) of 0.5, an ECHCG herbicidal rating (ECHOG Barnyardgrass; rate 0.032 kg/ha) of 4.0 and an ECHCG herbicidal rating (ECHOG Barnyardgrass; rate 0.062 kg/ha) of 7.0. The ECHCG herbicidal rating (ECHOG Barnyardgrass; rate 0.125 kg/ha) was 9.0, the “Postemergence herbicidal rating TRZAWR” value ([6]; 0.008 kg/ha) was 2.5 and the “Postemergence herbicidal rating TRZAWR” value ([6]; 0.016 kg/ha) was 3.5. For the same compound, the “Postemergence herbicidal rating TRZAWR” value ([6]; 0.032 kg/ha) was 4.0, the “Postemergence herbicidal rating TRZAWR” value ([6]; 0.062 kg/ha) was 4.5 and the GLXMAW herbicidal rating (GLXMAW Soybean, Williams; rate 0.016 kg/ha) was 0.5. The GLXMAW herbicidal rating (GLXMAW Soybean, Williams; rate 0.032 kg/ha) was 1.5, the GLXMAW herbicidal rating (GLXMAW Soybean, Williams; rate 0.062 kg/ha) was 2.5 and the GLXMAW herbicidal rating (GLXMAW Soybean, Williams; rate 0.125 kg/ha) was 4.0.
